Like-named read-outs stand apart in the source and are kept apart here.
Key:
[1] = tested on: SW48 (Dukes' Type C, Grade IV, noninvasive colorectal adenocarcinoma); test: MTT cytotoxicity, SW48 cells; settings: for CC50: SW48 cells, MTT, 48 h, mean ± SD; for Index of selectivity MCRT / SW48: IS = CC50 MCRT ÷ CC50 SW48; for Index of selectivity PBMC / SW48: IS = CC50 PBMC ÷ CC50 SW48
Procedure: (§1) The compounds were solubilized in dimethyl sulfoxide (DMSO, Fischer Chemical, NJ, USA) at 50,000 μg/mL and stored at −20°C until use. From the stock solution, six serial 1:2 double dilutions of each compound were prepared to start with concentrations of 100, 50, 25, 12.5, 6.25, and 3.125 μg/mL, respectively. 5-FU, one of the conventional drugs to treat CRC [34], was used as an antitumor compound control at concentrations ranging between 800 and 0.625 μM.
(§2) SW948 (Dukes' Type C, Grade III, premetastatic colorectal adenocarcinoma—CCL-237), SW48 (Dukes' Type C, Grade IV, noninvasive colorectal adenocarcinoma—CCL231), and SW620 (Dukes' Type C, Grade IV invasive colorectal adenocarcinoma—CCL227) (American Type Culture Collection Manassas, VA, USA) were maintained in standard conditions at 37°C, without a CO2 atmosphere. PBMCs and MCRT were used as nontumoral control cells. PBMCs were obtained by healthy donors, separated using Histopaque-1077 (Sigma-Aldrich) and cultured in RPMI-1640 medium (Sigma-Aldrich) supplemented with 10% SFB and 1% penicillin/streptomycin [46]. In turn, MCRT were obtained from healthy BALB/c mice; for this, mice were euthanized with CO2 after previous sedation, the colorectal tissue removed, cleaned up, and cut into 2 × 2 mm pieces, suspended in supplemented DMEM, and used immediately after collection. […] Moreover, the inclusion of PBMC also served to assess the systemic toxicity of FQAS.
(§3) The cytotoxic activity of synthesized FQASs and QASs was studied by measuring cell viability/mortality, determined with the MTT (3-(4,5-dimethylthiazol-2-yl)-2,5-diphenyl tetrazole bromide) method (VWR Chemicals and Reagents Avantor), upon exposure of each cell line to six serial dilutions of the different compounds independently. Unexposed cells were included as viability controls, and cells exposed to 5-FU were included as cytotoxicity controls. Briefly, cells were adjusted to 200,000 cells/mL in the corresponding supplemented culture medium, and 100 μL (20,000 cells/well) were dispensed into each 96-well cell culture plate (Nunc, Thermo Fisher Scientific). Twelve hours after seeding the monolayer, 100 μL dilution of each compound was added to each well; the plates containing CRC were incubated at 37°C in the absence of CO2, while plates with PBMCs and MCRT were incubated at 37°C and 5% CO2 atmosphere. For MCRT, each piece was placed into each well of a 96-well plate and exposed to each dilution of the FQASs and QASs. After 48 h of incubation, 30 μL/well of MTT (5 mg/mL) was added, and plates were left at 37°C for 3 h, protected from light. After this time, 100 μL/well of DMSO was added to solubilize the formazan crystals formed. Plates were read at 570 nm on a Varioskan plate reader (Thermo Fisher), and nonspecific absorbance was corrected by subtracting the optical densities (OD) of the blank solutions corresponding to the supplemented culture media (RPMI 1640, DMEM, or L-15 media) and 0.5% DMSO. Each concentration of the FQASs, QASs, and controls was evaluated in duplicate in three independent experiments.
(§4) The percentages of viability (equation (1)) and mortality (equation (2)) were calculated with the net OD:(1) % viability=OD treated cell÷nontreated cells×100, (2) % mortality=100−% viability.
(§5) The %mortality data for each compound concentration was recorded, and the median cytotoxic concentration (CC50), corresponding to the concentration at which 50% of cell death occurs, was calculated using GraphPad Prism 8 software (GraphPad, Software, Inc., La Jolla, CA, USA). […] Lastly, the index of selectivity (IS) was calculated by dividing the CC50 value obtained for control cells (MCRT and PBMCs) by the CC50 value obtained for each CRC cell phenotype using the formula: IS = CC50 (MCRT or PBMC) ÷ CC50 (SW948, SW48 or SW620).

[2] = tested on: SW948 (Dukes' Type C, Grade III, premetastatic colorectal adenocarcinoma); test: MTT cytotoxicity, SW948 cells; settings: for CC50: Homo sapiens, SW948, 48 h, SW948 cells, MTT, 48 h, mean ± SD; for Index of selectivity MCRT / SW948: IS = CC50 MCRT ÷ CC50 SW948; for Index of selectivity PBMC / SW948: IS = CC50 PBMC ÷ CC50 SW948
Procedure: as §1, §2, §3, §4, §5

[3] = MTT cytotoxicity, peripheral blood mononuclear cells; assay type: cell-based; settings: human, peripheral blood mononuclear cells (PBMC); PBMC, nontumoral control, MTT, 48 h, mean ± SD
Procedure: as §1, §2, §3, §4, §5

[4] = Ex vivo MTT cytotoxicity, healthy murine colorectal tissue; assay type: cell-based, BALB/c mice; settings: BALB/c, mouse, healthy murine colorectal tissue (MCRT) pieces, ex vivo, nontumoral control, MTT, 48 h, mean ± SD
Procedure: as §1, §2, §3, §4, §5

[5] = tested on: SW620 (Dukes' Type C, Grade IV invasive colorectal adenocarcinoma); test: MTT cytotoxicity, SW620 cells; settings: for CC50: Homo sapiens; for Index of selectivity MCRT / SW620: IS = CC50 MCRT ÷ CC50 SW620; for Index of selectivity PBMC / SW620: IS = CC50 PBMC ÷ CC50 SW620
Procedure: as §1, §2, §3, §4, §5

[6] = tested on: CRC cell lines SW48, SW620, and SW948; test: MTT cytotoxicity across CRC cell lines (pooled statements, selectivity between lines); assay type: cell-based; settings: for Index of selectivity SW48 vs. SW620: IS = CC50 SW48 ÷ CC50 SW620; for Index of selectivity SW948 vs. SW48: IS = CC50 SW948 ÷ CC50 SW48; for Index of selectivity SW948 vs. SW620: IS = CC50 SW948 ÷ CC50 SW620
Procedure: as §1, §2, §3, §4
The %mortality data for each compound concentration was recorded, and the median cytotoxic concentration (CC50), corresponding to the concentration at which 50% of cell death occurs, was calculated using GraphPad Prism 8 software (GraphPad, Software, Inc., La Jolla, CA, USA). […]

C[N+](C)(CI)CCCCC=C(c1ccc(F)cc1)c1ccc(F)cc1 [Compound 4]
CC50 ([1]; Homo sapiens, SW48, 48 h): 100 ± 3 µM | Index of selectivity MCRT / SW48 [1]: 1.1 | Index of selectivity PBMC / SW48 [1]: 0.45 | CC50 [2]: 72.8 ± 12.8 µM | Index of selectivity MCRT / SW948 [2]: 1.5 | Index of selectivity PBMC / SW948 [2]: 0.6 | CC50 at 48 h [3]: 45.1 ± 7.3 µM | CC50 at 48 h [4]: 107 ± 4.5 µM | CC50 ([5]; 48 h): 52.5 ± 5.6 µM | Index of selectivity MCRT / SW620 [5]: 2.0 | Index of selectivity PBMC / SW620 [5]: 0.9 | Index of selectivity SW48 vs. SW620 [6]: 1.9 | Index of selectivity SW948 vs. SW48 [6]: 0.7 | Index of selectivity SW948 vs. SW620 [6]: 1.4

O=c1[nH]cc(F)c(=O)[nH]1 [Compound 5-FU, 5-fluorouracil, reference compound]
cytotoxicity level (high/moderate/low) [1]: High | CC50 ([1]; Homo sapiens, SW48, 48 h): 30.3 µM | Index of selectivity MCRT / SW48 [1]: 33.9 | Index of selectivity PBMC / SW48 [1]: 1.4 | cytotoxicity level (high/moderate/low) [2]: High | CC50 [2]: 30.3 ± 5.2 µM | Index of selectivity MCRT / SW948 [2]: 31.2 | Index of selectivity PBMC / SW948 [2]: 1.3 | CC50 at 48 h [3]: 38.7 ± 7 µM | CC50 at 48 h [4]: 945 ± 43.7 µM | cytotoxicity level (high/moderate/low) [5]: High | CC50 ([5]; 48 h): 30.3 ± 6 µM | CC50 ([5]; SW-620): 27.9 µM | Index of selectivity MCRT / SW620 [5]: 31.2 | Index of selectivity PBMC / SW620 [5]: 1.3 | Index of selectivity SW48 vs. SW620 [6]: 0.9 | Index of selectivity SW948 vs. SW48 [6]: 1.1 | Index of selectivity SW948 vs. SW620 [6]: 1.0

C[N+](C)(CI)CCCC=C(c1cccc(C(F)(F)F)c1)c1cccc(C(F)(F)F)c1 [Compound 6]
CC50 ([1]; Homo sapiens, SW48, 48 h): 55.5 ± 6.4 µM | Index of selectivity MCRT / SW48 [1]: 2.3 | Index of selectivity PBMC / SW48 [1]: 0.80 | CC50 [2]: 45.6 ± 3.6 µM | Index of selectivity MCRT / SW948 [2]: 2.8 | Index of selectivity PBMC / SW948 [2]: 1.0 | CC50 at 48 h [3]: 44.8 ± 6.4 µM | CC50 at 48 h [4]: 129 ± 11.3 µM | CC50 ([5]; 48 h): 38.8 ± 2.1 µM | Index of selectivity MCRT / SW620 [5]: 3.3 | Index of selectivity PBMC / SW620 [5]: 1.2 | Index of selectivity SW48 vs. SW620 [6]: 1.4

C[N+](C)(CCl)CCCC=C(c1ccc(C(F)(F)F)cc1)c1ccc(C(F)(F)F)cc1 [Compound 8]
CC50 ([1]; Homo sapiens, SW48, 48 h): 50.8 ± 4 µM | Index of selectivity MCRT / SW48 [1]: 2.0 | Index of selectivity PBMC / SW48 [1]: 0.8 | CC50 [2]: 20.4 ± 6.2 µM | Index of selectivity MCRT / SW948 [2]: 5.0 | Index of selectivity PBMC / SW948 [2]: 2.1 | CC50 at 48 h [3]: 42.3 ± 9.3 µM | CC50 at 48 h [4]: 102 ± 5 µM | CC50 ([5]; 48 h): 19.2 ± 3.5 µM | Index of selectivity MCRT / SW620 [5]: 5.3 | Index of selectivity PBMC / SW620 [5]: 2.2 | Index of selectivity SW48 vs. SW620 [6]: 2.6 | Index of selectivity SW948 vs. SW48 [6]: 0.4 | Index of selectivity SW948 vs. SW620 [6]: 1.1

C[N+](C)(CI)CCCCC=C(c1ccc(C(F)(F)F)cc1)c1ccc(C(F)(F)F)cc1 [Compound 13]
CC50 ([1]; Homo sapiens, SW48, 48 h): 18.5 µM | Index of selectivity PBMC / SW48 [1]: 3.3 | CC50 [1]: 16.3 ± 2 µM | CC50 [2]: 26.9 ± 4 µM | Index of selectivity PBMC / SW948 [2]: 2.0 | CC50 at 48 h [3]: 53.9 ± 3 µM | CC50 at 48 h [4]: > 293 µM | CC50 ([5]; 48 h): 16 ± 1.5 µM | Index of selectivity PBMC / SW620 [5]: 3.4 | Index of selectivity SW48 vs. SW620 [6]: 1.0 | Index of selectivity SW948 vs. SW48 [6]: 1.7 | Index of selectivity SW948 vs. SW620 [6]: 1.7

C[N+](C)(CCl)CCCCC=C(c1ccc(F)cc1)c1ccc(F)cc1 [Compound 3]
CC50 ([1]; Homo sapiens, SW48, 48 h): 125 ± 5.1 µM | Index of selectivity MCRT / SW48 [1]: 1.0 | Index of selectivity PBMC / SW48 [1]: 0.32 | CC50 [2]: 52.9 ± 13.8 µM | Index of selectivity MCRT / SW948 [2]: 2.5 | Index of selectivity PBMC / SW948 [2]: 0.8 | CC50 at 48 h [3]: 39.7 ± 7.7 µM | CC50 at 48 h [4]: 130 ± 20 µM | CC50 ([5]; 48 h): 64.5 ± 8.1 µM | Index of selectivity MCRT / SW620 [5]: 2.0 | Index of selectivity PBMC / SW620 [5]: 0.6 | Index of selectivity SW48 vs. SW620 [6]: 1.9 | Index of selectivity SW948 vs. SW48 [6]: 0.4 | Index of selectivity SW948 vs. SW620 [6]: 0.8

C[N+](C)(CI)CCCC=C(c1ccc(F)cc1)c1ccc(F)cc1 [Compound 2]
CC50 ([1]; Homo sapiens, SW48, 48 h): 75.7 ± 14.2 µM | Index of selectivity MCRT / SW48 [1]: 2.7 | Index of selectivity PBMC / SW48 [1]: 0.47 | CC50 [2]: 77.9 ± 9.1 µM | Index of selectivity MCRT / SW948 [2]: 2.6 | Index of selectivity PBMC / SW948 [2]: 0.5 | CC50 at 48 h [3]: 35.6 ± 6.6 µM | CC50 at 48 h [4]: 205 ± 14.5 µM | CC50 ([5]; SW-620, read-out: LC50 (Figure 2c)): 28.1 µM | Index of selectivity MCRT / SW620 [5]: 7.3 | Index of selectivity PBMC / SW620 [5]: 1.3 | Index of selectivity SW48 vs. SW620 [6]: 2.7 | Index of selectivity SW948 vs. SW48 [6]: 1.0 | Index of selectivity SW948 vs. SW620 [6]: 2.8

C[N+](C)(CI)CCCCC=C(c1cccc(C(F)(F)F)c1)c1cccc(C(F)(F)F)c1 [Compound 11]
CC50 ([1]; Homo sapiens, SW48, 48 h): 22.1 ± 4 µM | Index of selectivity MCRT / SW48 [1]: 4.2 | Index of selectivity PBMC / SW48 [1]: 1.5 | CC50 [2]: 21.5 ± 4.5 µM | Index of selectivity MCRT / SW948 [2]: 4.4 | Index of selectivity PBMC / SW948 [2]: 1.6 | CC50 at 48 h [3]: 33.4 ± 2 µM | CC50 at 48 h [4]: 93.5 ± 13.9 µM | CC50 ([5]; 48 h): 18.1 ± 3.7 µM | Index of selectivity MCRT / SW620 [5]: 5.2 | Index of selectivity PBMC / SW620 [5]: 1.9 | Index of selectivity SW48 vs. SW620 [6]: 1.2 | Index of selectivity SW948 vs. SW48 [6]: 1.0 | Index of selectivity SW948 vs. SW620 [6]: 1.2
